Melting point data for 7 compounds are collected here from patent US6407115B1, “Hexa-cyclic compound” (Daiichi Pharmaceutical Co., Ltd., priority 1991, dated 2002).

What is called melting point is the temperature, or range, at which the solid turns liquid.

The compound `CC[C@@]1(O)C(=O)OCc2c1cc1n(c2=O)Cc2c-1nc1ccc(C)c3c1c2C(NC(C)=O)CN3` (stereo partly shown) yielded a melting point of 225 to 235 °C. For `CC[C@@]1(O)C(=O)OCc2c1cc1n(c2=O)Cc2c-1nc1cccc3c1c2CC(S(=O)(=O)O)C3` (stereo partly shown), the melting point is 190 to 200 °C (dec.).

For the compound `CC[C@@]1(O)C(=O)OCc2c1cc1n(c2=O)Cc2c-1nc1ccc(C)c3c1c2CCN3CCNC(C)=O`, the melting point was 155 to 165 °C (dec.). For the compound `CC[C@@]1(O)C(=O)OCc2c1cc1n(c2=O)Cc2c-1nc1ccc(C)c3c1c2CCN3CCN.Cl`, the melting point was 210 to 230 °C (dec.). For `CC[C@@]1(O)C(=O)OCc2c1cc1n(c2=O)Cc2c-1nc1cccc3c1c2C(NC(C)=O)CCC3` (stereo partly shown), the melting point is 203 to 206 °C (dec.). As for `CC[C@@]1(O)C(=O)OCc2c1cc1n(c2=O)Cc2c-1nc1ccc(C)c3c1c2CCC3N1C(=O)c2ccccc2C1=O` (stereo partly shown), the melting point was 285 to 290 °C (dec.).

Compound `CC[C@@]1(O)C(=O)OCc2c1cc1n(c2=O)Cc2c-1nc1ccc(Cl)c3c1c2C(NC(C)=O)CN3` (stereo partly shown) had a melting point of 250 to 270 °C.
